Assay results from patent EP0840727B1, “3-HYDROXY-2(1H)-[…] AGENTS” (priority 1995, dated 1997).
Marks after values point to notes of the source that are not given here.

What was measured:
[1] = Promoting excretion of 238Pu(IV) in mice by injected ligands; type: in vivo; conditions: for percent of injected ^238Pu ± SD at 24 h, tissues: liver / percent of injected ^238Pu ± SD at 24 h, tissues: skeleton / percent of injected ^238Pu ± SD at 24 h, tissues: soft tissue / percent of injected ^238Pu ± SD at 24 h, whole body / percent of injected ^238Pu at 24 h, excreta: feces and GI contents / percent of injected ^238Pu at 24 h, excreta: urine 0-24 h / percent of injected ^238Pu at 24 h, tissues: kidneys: ligand 30 µmol kg^-1 ip at 1 h after iv ^238Pu(IV) citrate, kill at 24 h; for percent of injected ^238Pu at 24 h, excreta: feces and GI contents / percent of injected ^238Pu at 24 h, excreta: urine 0-24 h / percent of injected ^238Pu at 24 h, tissues: kidneys: pooled samples
Excerpt: Animal studies were completed using methods detailed in Radiation Protection Dosimetry, in press, P. W. Durbin et al., "In Vivo Chelation of Am(III), Pu(IV), Np(V) and U(VI) in Mice by TREN-(Me-3,2-HOPO)"; Radiation Protection Dosimetry, 17, No. 1, 1989, p. 351, P. W. Durbin et al., "Removal of ^238Pu(IV) from Mice by Polycatechoylate, -Hydroxamate or -Hydroxypyridinonate Ligands"; Radiation Research, 99, 1984, p. 85, P. W. Durbin et al., "Specific Sequestering Agents for the Actinides ..."; Radiation Research, 99, 1984, p. 106, P. W. Durbin et al., "Removal of Pu and Am from Beagles and Mice ..."; Radiation Research, 81, 1980, p. 170, R. D. Lloyd et al., and P. W. Durbin et al., "Specific Sequestering Agents for the Actinides ...". The foregoing articles are hereby incorporated by reference.
Radionuclides used in the animal studies came from a variety of sources. However, they can be purchased commercially. The ^238Pu(IV) citrate and ^241Am(III) citrate solutions were prepared for animal injection by 8- to 10-fold dilution with 0.14M NaCl (pH 4) of concentrated stock solutions (0.08M sodium citrate buffer) that had been held in frozen storage at Lawrence Berkeley Laboratory (hereinafter LBL) for several years. [The ^238Pu(IV) was originally obtained from D. R. Atherton at the University of Utah Radiobiology Laboratory, Salt Lake City. The ^241Am(III) solution had been obtained many years earlier from the LBL Actinide Chemistry group.]
The novel chelating agents of the present invention and comparative compounds were tested for their effectiveness in promoting excretion ^238Pu(IV) in nice by injected ligands as follows. Mice, in groups of five, each received an intravenous injection of 1850 Bq ^238Pu(IV) in 0.2 mL of citrate buffer. One hour later, 30 µmol/kg of ligand was injected intraperitoneally in 0.5 mL of saline. The mice were killed 24 hours after the Pu injection, frozen, and dissected after partial thawing. The ^238Pu in skeleton, soft tissues, and separated excreta was determined by counting the ^234U L x-rays. Results of removal of ^238Pu(IV) from mice by injected ligands are summarized in Table 3, which also includes data for CaNa3-DTPA and other reference ligands and the Pu-injected controls. […] While the case of multidente 1,2-HOPO and catechoylamide chelating agents, octadentates are always better chelating agents than the corresponding hexadentates and tetradentates.

[2] = In vivo acute toxicity test of injected ligands in mice
Procedure: The test of acute toxicity of novel and comparative ligands was carried out as follows. Groups of five mice were each given a single i.p. injection of […] of ligand and a day for 10 days or given two i.p. injections of […] in 8 hours. The ligand was dissolved in 0.5 to 1.0 ml of saline at pH 7 to 8. After a period of observation, the mice were killed; selected tissues were removed and fixed for histopathological examination; and unusual findings at autopsy were recorded. […]

[3] = protocol IA, 100 µmol kg^-1 x 2 daily, study length 6 d, data for two moribund mice autopsied on d 3
[4] = protocol IB, 100 µmol kg^-1, study length 5 d
[5] = protocol I, 100 µmol kg^-1 x 10 daily i.p., study length 11 d
[6] = protocol I, 100 µmol kg^-1 x 10 daily i.p., study length 21 d
[7] = protocol II, 500 µmol kg^-1 x 2 in 8 h, study length 8 d

SMILES | percent of injected ^238Pu ± SD at 24 h, tissues: liver [1] | percent of injected ^238Pu ± SD at 24 h, tissues: skeleton [1] | percent of injected ^238Pu ± SD at 24 h, tissues: soft tissue [1] | percent of injected ^238Pu ± SD at 24 h, whole body [1] | percent of injected ^238Pu at 24 h, excreta: feces and GI contents [1] | percent of injected ^238Pu at 24 h, excreta: urine 0-24 h [1] | percent of injected ^238Pu at 24 h, tissues: kidneys [1] | other results
Cn1ccc(C(=O)NCCCNC(=O)c2ccn(C)c(=O)c2O)c(O)c1=O [3-LI-Me-3,2-HOPO, 1,3-bis[(3-hydroxy-1-methyl-2-oxo-1,2-dihydropyridin-4yl)carboxamido]propane] | 9.5 ± 4.9^d percent of injected ^238Pu | 14 ± 1.9% of injected ^238Pu | 2.6 ± 0.4% of injected ^238Pu | 27 ± 5.2% of injected ^238Pu | 41.6% of injected ^238Pu | 32% of injected ^238Pu | 0.5% of injected ^238Pu | no. of survivors ([2]; protocol IA, 100 µmol kg^-1 x 2 daily, study length 6 d): 0; percent control mean + SD: body weight [2, 3]: 89 ± 4 percent control; percent control mean + SD: kidney weight [2, 3]: 222 ± 29 percent control; percent control mean + SD: plasma urea N [2, 3]: >1800 percent control
Cn1ccc(C(=O)NCCN(CCNC(=O)c2ccn(C)c(=O)c2O)CCN(CC(=O)O)CC(=O)O)c(O)c1=O [TREN-bis(Me-3,2-HOPO)-bis acetic acid] | 6.6 ± 2.2^d percent of injected ^238Pu | 20 ± 1.7% of injected ^238Pu | 2.7 ± 0.8% of injected ^238Pu | 30 ± 3.6% of injected ^238Pu | 34.6% of injected ^238Pu | 8.7% of injected ^238Pu | 0.5% of injected ^238Pu | 
Cc1c(CNC(=O)c2ccn(C)c(=O)c2O)c(C)c(CNC(=O)c2ccn(C)c(=O)c2O)c(C)c1CNC(=O)c1ccn(C)c(=O)c1O [ME-Me-3,2-HOPO] | 6.1 ± 4.9^d percent of injected ^238Pu | 12 ± 1.8% of injected ^238Pu | 3.0 ± 2.0% of injected ^238Pu | 22 ± 8.5^d percent of injected ^238Pu | 70.1% of injected ^238Pu | 33.5% of injected ^238Pu | 0.9% of injected ^238Pu | 
Cn1ccc(C(=O)NCCCN(CCCNC(=O)c2ccn(C)c(=O)c2O)CCCNC(=O)c2ccn(C)c(=O)c2O)c(O)c1=O [TRPN-Me-3,2-HOPO] | 17 ± 5.0% of injected ^238Pu | 14 ± 3.2% of injected ^238Pu | 2.0 ± 1.1% of injected ^238Pu | 33 ± 5.3% of injected ^238Pu | 11.5% of injected ^238Pu | 55% of injected ^238Pu |  | 
Cn1ccc(C(=O)NCCCCNC(=O)c2ccn(C)c(=O)c2O)c(O)c1=O [4-LI-Me-3,2-HOPO] | 3.7 ± 1.5^d percent of injected ^238Pu | 11 ± 1.7% of injected ^238Pu | 1.9 ± 0.5% of injected ^238Pu | 17 ± 2.4^d percent of injected ^238Pu | 63% of injected ^238Pu | 19.4% of injected ^238Pu | 0.4% of injected ^238Pu | Pu removal (in words) ([1]; injected ligands, 30 µmol/kg intraperitoneally one hour after ^238Pu(IV)): as effective or more effective than the hexadentate and octadentate chelating agents; no. of survivors [2, 4]: 0; percent control mean + SD: body weight [2, 4]: 85 ± 8 percent control; percent control mean + SD: kidney weight [2, 4]: 190 ± 63 percent control; percent control mean + SD: plasma urea N [2, 4]: >2000 percent control
Cn1ccc(C(=O)NCCN(CCNC(=O)c2ccn(C)c(=O)c2O)CCN(CCNC(=O)c2ccn(C)c(=O)c2O)CCNC(=O)c2ccn(C)c(=O)c2O)c(O)c1=O [H(2,2)-Me-3,2-HOPO, N,N,N',N'-tetrakis[(3-hydroxyl-1-methyl-2-oxo-1,2-dihydropyridin-4-yl)carboxamido-ethyl]-ethylenediamine] | 3.8 ± 1.1^d percent of injected ^238Pu | 11 ± 1.7% of injected ^238Pu | 2.8 ± 1.6% of injected ^238Pu | 19 ± 2.9^d percent of injected ^238Pu | 45.3% of injected ^238Pu | 36% of injected ^238Pu | 1.3% of injected ^238Pu | no. of survivors [2, 5]: 5; percent control mean + SD: body weight [2, 5]: 92 ± 6 percent control; percent control mean + SD: plasma urea N [2, 5]: 223 ± 28 percent control; no. of survivors [2, 6]: 5; percent control mean + SD: body weight [2, 6]: 87 ± 9 percent control; percent control mean + SD: plasma urea N [2, 6]: 225 ± 188 percent control; no. of survivors [2, 7]: 3; percent control mean + SD: body weight [2, 7]: 94 ± 6 percent control; percent control mean + SD: plasma urea N [2, 7]: 169 ± 10 percent control
Cn1ccc(C(=O)NCCN(CCCN(CCNC(=O)c2ccn(C)c(=O)c2O)CCNC(=O)c2ccn(C)c(=O)c2O)CCNC(=O)c2ccn(C)c(=O)c2O)c(O)c1=O [H(3,2)-Me-3,2-HOPO, N,N,N',N'-tetrakis[(3-hydroxy-1-methyl-2-oxo-1,2-dihydropyridin-4-yl)carboxamido-ethyl]-propylenediamine] | 14 ± 6.1% of injected ^238Pu | 10 ± 2.0% of injected ^238Pu | 2.4 ± 0.3^d percent of injected ^238Pu | 28 ± 4.8% of injected ^238Pu | 52.1% of injected ^238Pu | 19.5% of injected ^238Pu | 1.2% of injected ^238Pu | 
Cn1ccc(C(=O)NCCN(CCCCN(CCNC(=O)c2ccn(C)c(=O)c2O)CCNC(=O)c2ccn(C)c(=O)c2O)CCNC(=O)c2ccn(C)c(=O)c2O)c(O)c1=O [H(4,2)-Me-3,2-HOPO, N,N,N',N'-tetrakis[(3-hydroxy-1-methyl-2-oxo-1,2-dihydropyridin-4-yl)carboxamido-ethyl]-butylenediamine] | 29 ± 6.1% of injected ^238Pu | 12 ± 2.9% of injected ^238Pu | 1.9 ± 1.0% of injected ^238Pu | 46 ± 8.5% of injected ^238Pu | 26.8% of injected ^238Pu | 28% of injected ^238Pu | 1.8% of injected ^238Pu | 
